Data on 31 compounds can be found in ChEMBL document CHEMBL1147578, “Design, synthesis, and SAR of anthranilamide-based factor Xa inhibitors with improved functional activity” (Bioorg Med Chem Lett, 2004).

The target of data set [1] is Tissue-type plasminogen activator (Homo sapiens, UniProt P00750). Nature of the data set: Inhibitory activity against tissue type plasminogen activator.
In another data set the target is Serine protease 1 (Homo sapiens, UniProt P07477). Nature of the data set: Inhibitory activity against trypsin.
Chain of Serine protease 1 (P07477 whole entry): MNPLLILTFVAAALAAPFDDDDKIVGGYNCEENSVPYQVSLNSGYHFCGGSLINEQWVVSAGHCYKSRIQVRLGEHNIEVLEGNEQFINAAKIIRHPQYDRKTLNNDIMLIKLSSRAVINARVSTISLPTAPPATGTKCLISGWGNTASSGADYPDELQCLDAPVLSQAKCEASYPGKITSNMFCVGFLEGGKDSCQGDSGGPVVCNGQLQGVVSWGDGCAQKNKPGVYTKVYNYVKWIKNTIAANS
A further data set addresses Plasminogen (Homo sapiens, UniProt P00747). Nature of the data set: Inhibitory activity against plasmin.
Another data set concerns the target Coagulation factor X (Homo sapiens, UniProt P00742). The data set can be described thus: In vitro inhibitory activity against coagulation factor X.
Another data set concerns the target Prothrombin (Homo sapiens, UniProt P00734). Nature of the data set: Inhibitory activity against thrombin.
Data set [2] deals with Vitamin K-dependent protein C (Homo sapiens, UniProt P04070). The data set can be described thus: Inhibitory activity against activated protein C.
Chain of Vitamin K-dependent protein C (P04070 43-197 limits assumed): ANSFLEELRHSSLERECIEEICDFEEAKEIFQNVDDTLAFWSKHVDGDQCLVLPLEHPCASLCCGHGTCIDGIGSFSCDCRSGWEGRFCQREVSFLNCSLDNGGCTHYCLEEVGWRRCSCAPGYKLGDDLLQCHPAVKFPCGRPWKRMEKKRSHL
Chain of Vitamin K-dependent protein C (P04070 212-461 limits assumed): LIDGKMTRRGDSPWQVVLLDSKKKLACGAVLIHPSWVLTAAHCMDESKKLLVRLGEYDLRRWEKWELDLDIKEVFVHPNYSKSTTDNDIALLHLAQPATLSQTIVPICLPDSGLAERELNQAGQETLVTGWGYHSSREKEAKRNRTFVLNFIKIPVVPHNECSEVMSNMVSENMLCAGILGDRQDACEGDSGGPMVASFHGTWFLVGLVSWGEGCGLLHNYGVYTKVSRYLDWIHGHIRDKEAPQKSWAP
For the next data set, the species on record is Homo sapiens. The data set can be described thus: Concentration required to double the lag time of maximum thrombin generation in human plasma-based thrombin generation assay. It counts as functional.
Another data set has as its target Plasma kallikrein (Homo sapiens, UniProt P03952). Nature of the data set: Inhibitory activity against kallikrein.
Data set [3] can be described thus: Oral bioavailability in rat (dose 6 mg/kg). The class given is ADME, organism-based. To be noted: in vivo.

Chain of Plasminogen (P00747 97-580 limits assumed): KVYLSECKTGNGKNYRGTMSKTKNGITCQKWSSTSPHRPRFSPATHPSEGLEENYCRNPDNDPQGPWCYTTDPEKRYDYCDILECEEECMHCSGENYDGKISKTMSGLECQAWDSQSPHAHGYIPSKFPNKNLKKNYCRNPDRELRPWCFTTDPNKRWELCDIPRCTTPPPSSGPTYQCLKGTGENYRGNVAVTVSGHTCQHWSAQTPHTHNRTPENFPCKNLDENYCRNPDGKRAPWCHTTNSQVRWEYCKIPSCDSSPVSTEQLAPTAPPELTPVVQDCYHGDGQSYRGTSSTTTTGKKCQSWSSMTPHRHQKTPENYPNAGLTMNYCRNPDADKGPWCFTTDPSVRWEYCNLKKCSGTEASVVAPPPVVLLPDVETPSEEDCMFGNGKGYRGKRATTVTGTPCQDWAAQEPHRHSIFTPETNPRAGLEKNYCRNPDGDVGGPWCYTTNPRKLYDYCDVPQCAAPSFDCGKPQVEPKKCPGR
Chain of Plasminogen (P00747 581-810 limits assumed): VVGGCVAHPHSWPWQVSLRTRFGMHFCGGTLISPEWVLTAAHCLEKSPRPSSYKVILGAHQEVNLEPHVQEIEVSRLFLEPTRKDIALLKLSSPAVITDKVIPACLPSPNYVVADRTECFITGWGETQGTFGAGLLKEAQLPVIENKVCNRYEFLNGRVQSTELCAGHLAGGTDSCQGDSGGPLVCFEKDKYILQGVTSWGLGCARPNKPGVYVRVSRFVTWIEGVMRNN
Chain of Tissue-type plasminogen activator (P00750 whole entry): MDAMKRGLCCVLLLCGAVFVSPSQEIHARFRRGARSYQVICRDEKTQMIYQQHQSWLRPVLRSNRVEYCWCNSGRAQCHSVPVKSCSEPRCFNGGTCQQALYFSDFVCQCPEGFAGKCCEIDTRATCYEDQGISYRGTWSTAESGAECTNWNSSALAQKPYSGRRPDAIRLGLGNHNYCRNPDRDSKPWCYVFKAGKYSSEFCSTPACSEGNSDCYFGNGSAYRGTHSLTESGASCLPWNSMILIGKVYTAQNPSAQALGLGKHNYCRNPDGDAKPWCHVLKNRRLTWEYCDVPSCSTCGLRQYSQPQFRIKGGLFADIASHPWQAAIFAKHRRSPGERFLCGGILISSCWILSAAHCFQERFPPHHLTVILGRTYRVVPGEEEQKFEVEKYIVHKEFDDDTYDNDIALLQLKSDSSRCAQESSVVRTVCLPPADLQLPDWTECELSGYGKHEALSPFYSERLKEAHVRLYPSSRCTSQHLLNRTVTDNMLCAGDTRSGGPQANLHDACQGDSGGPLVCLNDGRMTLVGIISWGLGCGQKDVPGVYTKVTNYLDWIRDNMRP
Chain of Coagulation factor X (P00742 41-179 limits assumed): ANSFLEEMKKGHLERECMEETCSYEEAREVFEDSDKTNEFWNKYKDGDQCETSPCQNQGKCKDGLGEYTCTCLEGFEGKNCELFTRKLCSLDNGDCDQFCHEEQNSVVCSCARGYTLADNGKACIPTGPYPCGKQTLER
Chain of Coagulation factor X (P00742 235-488 limits assumed): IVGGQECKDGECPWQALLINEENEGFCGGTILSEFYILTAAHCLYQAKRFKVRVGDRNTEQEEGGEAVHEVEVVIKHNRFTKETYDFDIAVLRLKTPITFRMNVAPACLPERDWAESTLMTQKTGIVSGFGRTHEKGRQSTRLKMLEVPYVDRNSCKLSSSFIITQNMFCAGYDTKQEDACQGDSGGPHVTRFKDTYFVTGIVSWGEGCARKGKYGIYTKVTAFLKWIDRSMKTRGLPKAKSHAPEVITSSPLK
Chain of Plasma kallikrein (P03952 20-390 limits assumed): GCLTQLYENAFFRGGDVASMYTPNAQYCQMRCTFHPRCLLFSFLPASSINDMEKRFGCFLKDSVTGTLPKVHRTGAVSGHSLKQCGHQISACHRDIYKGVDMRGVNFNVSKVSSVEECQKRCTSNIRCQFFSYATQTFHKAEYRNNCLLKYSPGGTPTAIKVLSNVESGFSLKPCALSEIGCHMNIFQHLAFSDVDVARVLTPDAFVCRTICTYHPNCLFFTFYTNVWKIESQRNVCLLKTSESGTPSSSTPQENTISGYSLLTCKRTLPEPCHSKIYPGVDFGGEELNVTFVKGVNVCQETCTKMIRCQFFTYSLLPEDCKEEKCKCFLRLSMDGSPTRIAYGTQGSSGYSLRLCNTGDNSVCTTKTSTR
Chain of Plasma kallikrein (P03952 391-638 limits assumed): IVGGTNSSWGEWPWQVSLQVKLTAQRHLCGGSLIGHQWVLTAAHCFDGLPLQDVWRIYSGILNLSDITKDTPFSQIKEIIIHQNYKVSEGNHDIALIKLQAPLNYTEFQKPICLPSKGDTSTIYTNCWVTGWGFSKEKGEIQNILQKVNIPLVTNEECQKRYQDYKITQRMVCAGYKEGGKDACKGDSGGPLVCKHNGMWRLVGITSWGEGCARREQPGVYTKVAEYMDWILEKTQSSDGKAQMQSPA

Broadly, the IC50 is the point on the concentration scale where inhibition reaches its midpoint. Low values mean higher potency, high ones lower potency. `CN(CCO)Cc1ccc(C(=O)Nc2ccc(Cl)cc2C(=O)Nc2ccc(Cl)cn2)cc1`: the IC50 in data set [1] was over 11 µM; at Serine protease 1, over 11 µM; against Plasminogen, over 11 µM; on Coagulation factor X it was 0.082 µM; on Prothrombin, over 11 µM; in [2], over 11 µM.
As for `CC(=O)NNCc1ccc(C(=O)Nc2ccc(Cl)cc2C(=O)Nc2ccc(Cl)cn2)cc1`, the IC50 in data set [1] was over 11 µM; against Serine protease 1, over 11 µM; at Plasminogen, over 11 µM; on Coagulation factor X, 0.04 µM; on Prothrombin it was over 11 µM; in data set [2] it was over 11 µM.
Turning to `O=C(Nc1ccc(Cl)cc1C(=O)Nc1ccc(Cl)cn1)c1ccc(CN2CCCCC2)cc1`, the IC50 in [1] was over 11 µM; on Serine protease 1, over 11 µM; on Plasminogen it was over 11 µM; against Coagulation factor X, 0.015 µM; on Prothrombin, over 11 µM; in data set [2], over 11 µM.
For the compound `NNCc1ccc(C(=O)Nc2ccc(Cl)cc2C(=O)Nc2ccc(Cl)cn2)cc1`, the IC50 in data set [1] was over 11 µM; on Serine protease 1, over 11 µM; on Plasminogen it was over 11 µM; against Coagulation factor X, 0.04 µM; at Prothrombin, over 11 µM; in data set [2], over 11 µM.
For `O=C(Nc1ccc(Cl)cc1C(=O)Nc1ccc(Cl)cn1)c1ccc(CN2CCNCC2)cc1`, the IC50 in data set [1] was over 11 µM; against Serine protease 1 it was over 11 µM; against Plasminogen it was over 11 µM; against Coagulation factor X, 0.017 µM; on Prothrombin it was over 11 µM; in data set [2] it was over 11 µM.
On Coagulation factor X, `NCc1ccccc1-c1ccc(C(=O)Nc2ccc(Cl)cc2C(=O)Nc2ccc(Cl)cn2)cc1` displayed an IC50 of 0.0013 µM. This compound also gave an Activity in the data set filed under Homo sapiens of over 5 µM.
With `CNCCN(C)Cc1ccc(C(=O)Nc2ccc(Cl)cc2C(=O)Nc2ccc(Cl)cn2)cc1`, the IC50 in [1] is over 11 µM; against Serine protease 1, over 11 µM; against Plasminogen, over 11 µM; against Coagulation factor X, 0.0068 µM; against Prothrombin, over 11 µM; in [2], over 11 µM.
`COCCN(C)Cc1ccc(C(=O)Nc2ccc(Cl)cc2C(=O)Nc2ccc(Cl)cn2)cc1`: the half-maximal inhibitory concentration (IC50) in data set [1] is over 11 µM; against Serine protease 1, over 11 µM; against Plasminogen, over 11 µM; at Coagulation factor X it was 0.053 µM; against Prothrombin, over 11 µM; in data set [2] it was over 11 µM.
`N=C(N)NCc1ccc(C(=O)Nc2ccc(Cl)cc2C(=O)Nc2ccc(Cl)cn2)cc1`: the IC50 in data set [1] was over 11 µM; on Serine protease 1 it was over 11 µM; against Plasminogen, over 11 µM; on Coagulation factor X, 0.0014 µM; against Prothrombin, over 11 µM; in data set [2], over 11 µM.
Consider `O=C(Nc1ccc(Cl)cc1C(=O)Nc1ccc(Cl)cn1)c1ccc(CN2CCCC2=O)cc1`, for which the IC50 is over 11 µM in data set [1]; over 11 µM at Serine protease 1; over 11 µM against Plasminogen; 0.552 µM on Coagulation factor X; over 11 µM on Prothrombin; over 11 µM in data set [2].
Regarding `CN(Cc1ccc(C(=O)Nc2ccc(Cl)cc2C(=O)Nc2ccc(Cl)cn2)cc1)C1=NCCS1`, the IC50 is over 11 µM in [1]; over 11 µM against Serine protease 1; over 11 µM on Plasminogen; 0.01 µM against Coagulation factor X; over 11 µM against Prothrombin; over 11 µM in data set [2].
Regarding `NCc1ccc(C(=O)Nc2ccc(Cl)cc2C(=O)Nc2ccc(Cl)cn2)cc1`, the IC50 was over 11 µM in data set [1]; over 11 µM on Serine protease 1; over 11 µM against Plasminogen; 0.01 µM on Coagulation factor X; over 11 µM at Prothrombin; over 11 µM in data set [2].
Regarding `CCOC(=O)CN(C)Cc1ccc(C(=O)Nc2ccc(Cl)cc2C(=O)Nc2ccc(Cl)cn2)cc1`, the IC50 was over 11 µM in [1]; over 11 µM against Serine protease 1; over 11 µM against Plasminogen; 0.176 µM against Coagulation factor X; over 11 µM against Prothrombin; over 11 µM in data set [2].
Regarding `CN(Cc1ccc(C(=O)Nc2ccc(Cl)cc2C(=O)Nc2ccc(Cl)cn2)cc1)C1=NCCN1`, the 50% inhibitory concentration (IC50) was over 11 µM in [1]; over 11 µM at Serine protease 1; over 11 µM against Plasminogen; 0.002 µM at Coagulation factor X; over 11 µM on Prothrombin; over 11 µM in data set [2].
For `CC(=N)N1CCN(Cc2ccc(C(=O)Nc3ccc(Cl)cc3C(=O)Nc3ccc(Cl)cn3)cc2)CC1`, the IC50 in [1] was over 11 µM; against Serine protease 1 it was over 11 µM; against Plasminogen it was over 11 µM; at Coagulation factor X, 0.005 µM; against Prothrombin, over 11 µM; in data set [2] it was over 11 µM.
Turning to `CCN(C)Cc1ccc(C(=O)Nc2ccc(Cl)cc2C(=O)Nc2ccc(Cl)cn2)cc1`, the IC50 in data set [1] is over 11 µM; on Serine protease 1, over 11 µM; at Plasminogen, over 11 µM; against Coagulation factor X, 0.012 µM; against Prothrombin it was over 11 µM; in [2] it was over 11 µM.
Take `NC1=NCCCCN1Cc1ccc(C(=O)Nc2ccc(Cl)cc2C(=O)Nc2ccc(Cl)cn2)cc1`: the IC50 in data set [1] was over 11 µM; against Serine protease 1, over 11 µM; against Plasminogen, over 11 µM; against Coagulation factor X it was 0.0063 µM; at Prothrombin, over 11 µM; in [2] it was over 11 µM.
With `C/N=C(/NC)N(C)Cc1ccc(C(=O)Nc2ccc(Cl)cc2C(=O)Nc2ccc(Cl)cn2)cc1`, the IC50 in data set [1] was over 11 µM; against Serine protease 1, over 11 µM; at Plasminogen, over 11 µM; at Coagulation factor X it was 0.0008 µM; at Prothrombin it was over 11 µM; in [2], over 11 µM.
As a reminder, the bioavailability is dose-corrected exposure relative to a reference, in per cent. A lower bioavailability goes with little systemic uptake. On to `CC(=N)N(C)Cc1ccc(C(=O)Nc2ccc(Cl)cc2C(=O)Nc2ccc(Cl)cn2)cc1`, for which the IC50 in [1] is over 11 µM; against Serine protease 1 it was over 11 µM; against Plasminogen, over 11 µM; on Plasma kallikrein, 0.5 µM; against Prothrombin it was over 11 µM; in data set [2], over 11 µM. In addition, in data set [3], the bioavailability was under 1%. Moreover, the Activity in the data set filed under Homo sapiens was 0.5 µM.
For the compound `CN(C)C1=NCCN1Cc1ccc(C(=O)Nc2ccc(Cl)cc2C(=O)Nc2ccc(Cl)cn2)cc1`, the IC50 in data set [1] is over 11 µM; at Serine protease 1 it was over 11 µM; against Plasminogen it was over 11 µM; against Coagulation factor X it was 0.0013 µM; at Prothrombin, over 11 µM; in data set [2] it was over 11 µM.
On to `O=C(Nc1ccc(Cl)cc1C(=O)Nc1ccc(Cl)cn1)c1ccc(C[n+]2ccccc2)cc1`, for which the IC50 was over 11 µM in [1]; over 11 µM at Serine protease 1; over 11 µM on Plasminogen; 0.0058 µM at Coagulation factor X; over 11 µM at Prothrombin; over 11 µM in data set [2].
`CC(=N)NCc1ccc(C(=O)Nc2ccc(Cl)cc2C(=O)Nc2ccc(Cl)cn2)cc1`: the IC50 in data set [1] was over 11 µM; against Serine protease 1, over 11 µM; against Plasminogen it was over 11 µM; against Coagulation factor X, 0.0036 µM; against Prothrombin it was over 11 µM; in [2], over 11 µM.
Take `CCN(CC)Cc1ccc(C(=O)Nc2ccc(Cl)cc2C(=O)Nc2ccc(Cl)cn2)cc1`: the IC50 in data set [1] was over 11 µM; at Serine protease 1, over 11 µM; against Plasminogen, over 11 µM; against Coagulation factor X it was 0.035 µM; on Prothrombin, over 11 µM; in data set [2], over 11 µM.
With `NC1=NCCCN1Cc1ccc(C(=O)Nc2ccc(Cl)cc2C(=O)Nc2ccc(Cl)cn2)cc1`, the IC50 in [1] was over 11 µM; against Serine protease 1 it was over 11 µM; on Plasminogen, over 11 µM; on Coagulation factor X it was 0.0038 µM; against Prothrombin, over 11 µM; in data set [2], over 11 µM.
In the case of `O=C(Nc1ccc(Cl)cc1C(=O)Nc1ccc(Cl)cn1)c1ccc(CN2CCN=C2S)cc1`, the IC50 in data set [1] was over 11 µM; on Serine protease 1 it was over 11 µM; against Plasminogen, over 11 µM; against Coagulation factor X, 0.035 µM; at Prothrombin, over 11 µM; in data set [2], over 11 µM.
On to `CN(CC(=O)O)Cc1ccc(C(=O)Nc2ccc(Cl)cc2C(=O)Nc2ccc(Cl)cn2)cc1`, for which the IC50 in data set [1] is over 11 µM; at Serine protease 1, over 11 µM; on Plasminogen, over 11 µM; against Coagulation factor X it was 0.156 µM; at Prothrombin it was over 11 µM; in data set [2], over 11 µM.
As for `O=C(Nc1ccc(Cl)cc1C(=O)Nc1ccc(Cl)cn1)c1ccc(CN2CCOCC2)cc1`, the IC50 in data set [1] was over 11 µM; at Serine protease 1, over 11 µM; at Plasminogen, over 11 µM; against Coagulation factor X it was 0.14 µM; at Prothrombin it was over 11 µM; in data set [2] it was over 11 µM.
For `CN(Cc1ccc(C(=O)Nc2ccc(Cl)cc2C(=O)Nc2ccc(Cl)cn2)cc1)C(=N)c1ccccc1`, the IC50 was over 11 µM in data set [1]; over 11 µM on Serine protease 1; over 11 µM at Plasminogen; 0.011 µM against Coagulation factor X; over 11 µM against Prothrombin; over 11 µM in [2].
As to `O=C(Nc1ccc(Cl)cc1C(=O)Nc1ccc(Cl)cn1)c1ccc(CN2CCCC2)cc1`, the IC50 in data set [1] is over 11 µM; against Serine protease 1 it was over 11 µM; against Plasminogen it was over 11 µM; at Coagulation factor X, 0.016 µM; at Prothrombin, over 11 µM; in data set [2] it was over 11 µM.
As to `CNCc1ccc(C(=O)Nc2ccc(Cl)cc2C(=O)Nc2ccc(Cl)cn2)cc1`, the IC50 in data set [1] is over 11 µM; against Serine protease 1, over 11 µM; at Plasminogen it was over 11 µM; on Coagulation factor X it was 0.007 µM; against Prothrombin, over 11 µM; in [2] it was over 11 µM.
In the case of `CNC1=NCCN1Cc1ccc(C(=O)Nc2ccc(Cl)cc2C(=O)Nc2ccc(Cl)cn2)cc1`, the IC50 in data set [1] is over 11 µM; on Serine protease 1, over 11 µM; against Plasminogen it was over 11 µM; against Coagulation factor X it was 0.0035 µM; at Prothrombin it was over 11 µM; in [2], over 11 µM.
